Measurements: patent US7846901B2, “Method for inhibiting or treating intestinal damage caused by radiotherapy or chemotherapy comprising administering substance-P” (University-Industry Cooperation Group of Kyunghee University, priority 2007, dated 2010)
Entries after “also recorded” stand apart in the source; their conditions may differ. Where no end group is shown, it is not given here.

Columns and labels:
Type in all cases: in vivo, C57b1/6 mice
crypt cells [1] = experiment: Brd-U immunohistochemical staining for proliferation of crypt cells after gamma ray irradiation
Description: (§1) 8-week-old C57b1/6 mice (Central Lab Animal Inc., Seoul, Korea) were irradiated with gamma rays to establish an animal model of gastrointestinal damage, and gastrointestinal protective and regenerative effects of Substance-P were then examined.
(§2) For this purpose, C57b1/6 mice were divided into two groups, an experimental group and a control group, each consisting of 5 animals (n=5). 100 nM of Substance-P (Cat. No. 05-23-0600, Calbiochem) was injected to the experimental group mice via tail vein, 24 hours prior to gamma ray irradiation. 24 hours later, animals were irradiated with a gamma irradiator at a dose of 7.6 Gy. Immediately after gamma ray irradiation, 100 nM of Substance-P was intravenously injected once more into animals of the experimental group. The control group was given PBS.
(§3) Small intestines were isolated and fixed in a 3.7% formaldehyde solution for tissue fixation, for 1 to 2 days. Following the tissue processing process, the tissues were hardened in a paraffin block. The formalin-fixed paraffin tissues were sectioned to a 5 μm thickness using a microtome and then attached to a coated slide glass which was then dried, followed by TUNEL staining, Brd-U immunostaining and H&E staining. For Brd-U immunostaining, 2 hours prior to sacrifice of mice, 50 mg/kg of 5-bromo-2-deoxyuridine (Brd-U, Cat. No. B-9285, Sigma) was introduced into dividing cells by peritoneal injection.
Proliferative effects of Substance-P on crypt cells were examined by Brd-U immunohistochemical staining.
The tissue section slide was deparaffinized with xylene and hydrated in alcohol. The tissue section was pretreated with 2N HCl for 30 min, and endogenous peroxidase activity was blocked with addition of H2O2 for 10 min. The tissue section was treated with 0.3% Triton X-100 for 5 min to increase cell permeability. Then, 2% serum in a Vector ABC kit (PK-6100, Vector Laboratories Inc.) was added to block the cells. BrdU antibodies (Cat. No. 1 170 376, Roche Molecular Biochemicals) and 2% serum were diluted in a ratio of 6:100, followed by reaction at room temperature for 1 hour. […]

[2] = system: crypt cells and villi of small intestine; experiment: H&E staining: crypt cell counts and villous heights after gamma ray irradiation
Description: as §1, §2
as §3, with “4.5 hours, 3 days, and 7 days later, mice of each group were euthanized by CO2 asphyxiation and then received abdominal incision. Small” for “Small”
After the tissue section slide was H&E-stained and photographed, crypt cell counts and villous heights were measured and averaged, respectively.

crypt cells [3] = experiment: TUNEL assay for apoptosis of crypt cells after gamma ray irradiation
Description: as §1, §2
4.5 hours, 3 days, and 7 days later, mice of each group were euthanized by CO2 asphyxiation and then received abdominal incision. […]
Dead cells were detected by fluorescence labeling of damaged DNA molecules through TUNEL assay using an In Situ Cell Death Detection Kit (Cat. No. 1 684 795, Roche Molecular Biochemicals).
The tissue section slide was deparaffinized with xylene and hydrated in alcohol. […] Nuclear staining was carried out using 4′,6-diamidino-2-phenylindole (DAPI, Cat. No. D-9542, Sigma) and the stained tissue was examined in a green field of 515 to 565 nm under a fluorescence microscope.

[4] = radiation-induced gastrointestinal damage in mice, vs non-treated control group

Substance-P (RPKPQQFFGLM-NH2; ends and bridges not checked; UniProt P20366 58-68, looked up) [11-amino acid neuropeptide; Cat. No. 05-23-0600, Calbiochem]
BrdU staining of dividing crypt cells (crypt cells [1]; Day 1 after gamma ray irradiation, with vs without Substance-P): no significant difference in staining of cells | BrdU staining of dividing crypt cells (crypt cells [1]; Day 3 after gamma ray irradiation): intense staining in large numbers of cells | gastrointestinal recovery through crypt hyperplasia, conclusion from BrdU staining (crypt cells [1]; after gamma ray irradiation (FIG. 2)): earlier gastrointestinal recovery | villous atrophy (villous height) ([2]; Day 3 after irradiation, vs group without Substance-P): less villous atrophy | number of viable crypt cells (crypt cell survival) ([2]; Days 1, 3 and 7 after irradiation (FIG. 3), vs group without Substance-P): higher number of viable crypt cells | recovery of damaged crypt cells and villi / recovery time from gastrointestinal damage, summary statement [2, 4]: faster recovery of damaged crypt cells and villi to a normal state; also recorded: recovery time from gastrointestinal damage is also shortened | apoptosis of crypt stem cells (TUNEL) (crypt cells [3]; 4.5 hours after 7.6 Gy gamma rays, Substance-P 100 nM i.v. 24 h before and immediately after irradiation, vs control group (PBS)): significant reduction in apoptosis of crypt stem cells | apoptotic rate of crypt cells, summary statement (crypt cells [3]; [4]): significantly lower apoptotic rate of crypt cells; also recorded: apoptosis of stem cells is decreased
